Data on 5 compounds can be found in EP1222194B1, “7-ACYLAMINO-3-HETEROARYLTHIO-3-CEPHEM CARBOXYLIC ACID ANTIBIOTICS AND PRODRUGS THEREOF” (priority 1999, dated 2001).

Data set [1] in a line: Serum binding determination by ultrafiltration and HPLC. The data set is classed as in vitro ADME. Particulars: % of compound bound to serum as determined by HPLC. The method, then:
The more accurate measurement of binding of selected cephalosporin compounds was performed using HPLC as described below. […] Serum is placed in a shaking water bath preheated to 37 ± 2 °C for 5 to 10 minutes to heat serum to 37 °C. Serum pH is measured and recorded, while serum is 37 °C using pH paper. Measurements are taken twice, 3 minutes apart. If the pH is not 7.4 ± 0.4 then the pH is adjusted by blowing 5% CO2/95% O2 over the serum. After blowing for several minutes, serum is heated to 37 °C and measurements are taken twice, 3 minutes apart using pH paper to determine the pH. Store at 4 °C. The serum is stable for 7 days. Always check the pH before each use. • 2. Before any centrifugation, the centrifuge temperature must be adjusted to 25 ± 2 °C. Preheat the centrifuge by spinning for 45 minutes at the same speed to be used in the assay (1900 g) with two tubes of water in the rotor and the temperature set to 25 °C. When the centrifuge stops immediately check the temperature of the tubes of water with a calibrated thermometer. The temperature of the tubes of water must be 25 ± 2 °C. […] Continue spinning and measuring the temperature and adjusting the setting until the temperature is 25 ± 2 °C. • 3. Prepare blank ultrafiltrate by pipetting blank pH 7.4 serum into an Amicon Centrifree Micropartition devices, centrifuge: fixed angle rotor, 1900 g, 25 °C for 20 minutes. Heat ultrafiltrate in a shaking water bath preheated to 37 °C. Measure ultrafiltrate pH and adjust to the pH of the serum (7.4 ± 0.2). • 4. Pipette 190 ul of blank ultrafiltrate into a set of labeled 1.7 mL polypropylene microfuge tubes for 3 of each level. Pipette 10 µL of the appropriate standard stock 50, 200, 1000 µg/mL to make standards 2.5, 10, and 50 µg/mL respectively. Vortex each tube well. One set of the standard samples are mixed 1:1 with 0.2 M acetic acid and injected onto the HPLC (MSTD). These samples are the membrane standards and will be used to compare to the other standards. Pipette 190 ul of ultrafiltrate and spike with 10 ul of whatever solution (e.g. water) the standards are prepared in to make the zero standard. • 5. Pipette 475 µL of blank heated pH 7.4 serum into a set of labeled 1.7 mL polypropylene microfuge tubes for 2 of each (Serum A and Serum B). Pipette 25 µL of the 1000 µg/mL standard stock into each tube, vortex each tube well to make serum standard 50 µg/mL. Remove 100 µL of serum and deproteinate with 200 µL 4% TCA while vortexing to make serum time 0 (serum 50, T0). Place serum tubes in a shaking water bath at 37 °C for 10 minutes. Pipet 100 µL of serum out and deproteinate with 200 µL 4% TCA, to make serum time 10 min (serum 50, T10). Pipet 200 ul serum standard 50 µg/mL into an ultrafiltration device, which is not treated with TCA, to determine free drug in samples (Rat Serum 50). • 6. Transfer serum and standard samples to labeled Amicon Centrifree Micropartition filters, and centrifuge: 1900 g, 25 °C for 10 minutes. The extracted serum samples (T0 and T 10) are spun down and supernatant is loaded into HPLC vials. • 7. 100 µL of ultrafiltrate sample and 100 µL of 0.2 M acetic acid were mixed together to stabilize the compound in ultrafiltrate. • 8. Transfer entire stabilized ultrafiltrate solution to a labeled autoinjector HPLC vial cap with Teflon septa, and inject on HPLC.
Peak height or area is used in a weighted linear regression.

Data set [2] has as its system S. aureus Col8A(Meth^S)(lac^-). Description: Broth microdilution MIC (NCCLS). The format is cell-based. The conditions noted are these: Staphylococcus aureus, Mueller-Hinton Broth, 24 h at 35 °C. In short, it runs like this: (§1)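 Overnight cultures grown at 35 °C were diluted 1:10, regrown 1 h, then diluted 1:1000 in Mueller-Hinton broth. This inoculum was added to 2-fold compound dilutions for 5 x 10^5 CFU/mL final. After 24 h at 35 °C, growth was scored at 650 nm and by eye.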
(In broth dilution the organism is exposed to a series of concentrations in liquid medium.)

The subject of data set [3] is S. aureus PC1 (Meth^S)(lac^+). As to the kind of experiment: Broth microdilution MIC (NCCLS). The format is cell-based. The conditions noted are these: Staphylococcus aureus; S. aureus PC1 (Meth^S)(lac^+); Mueller-Hinton Broth, 24 h at 35 °C; read-out: MIC. In short, it runs like this:
as §1

SMILES strings stand for the structures. In brackets after ≈: the same amount, converted by molar mass.

The fraction unbound is the share of the substance not bound to proteins or other matrix. A lower fraction unbound goes with extensive binding. For the compound `NCCSCc1ncccc1SC1=C(C(=O)O)N2C(=O)[C@@H](NC(=O)/C(=N\O)c3nsc(N)n3)[C@H]2SC1` [Cmpd 2, (7R)-7-[(Z)-2-(5-amino-1,2,4-thiadiazol-3-yl)-2-(hydroxyimino)acetamido]-3-[2-(2-aminoethylthiomethyl)pyrid-3-ylthio]-3-cephem-4-carboxylic acid], the figures for the fraction unbound in data set [1] (rat serum) and in data set [1] (rhesus monkey) were 0.26 and 0.19, respectively.
For `NCCSCc1ccncc1SC1=C(C(=O)O)N2C(=O)[C@@H](NC(=O)/C(=N\O)c3nc(N)sc3Cl)[C@H]2SC1` [Cmpd 3, (7R)-7-[(Z)-2-(2-amino-5-chlorothiazol-4-yl)-2-(hydroxyimino)acetamido]-3-[4-(2-aminoethylthiomethyl)pyrid-3-ylthio]-3-cephem-4-carboxylic acid], in that order: 0.03 and 0.03.
As usually defined, the MIC is the least concentration at which growth counts as inhibited. As for `N=C(N)NCCSCc1ncccc1SC1=C(C(=O)O)N2C(=O)[C@@H](NC(=O)/C(=N\O)c3nsc(N)n3)[C@H]2SC1` [Cmpd 2-R, (7R)-7-[(Z)-2-(5-amino-1,2,4-thiadiazol-3-yl)-2-(hydroxyimino)acetamido]-3-[2-(2-guanidinoethylthiomethyl)pyrid-3-ylthio]-3-cephem-4-carboxylic acid], the MIC stood at 0.25 mg/L (≈ 0.409 µM) in data set [2] and 0.13 mg/L (≈ 0.213 µM) in data set [3].
Regarding `NCCSCc1ncccc1SC1=C(C(=O)O)N2C(=O)[C@@H](NC(=O)/C(=N\O)c3nc(N)sc3Cl)[C@H]2SC1` [Cmpd 1, (7R)-7-[(Z)-2-(2-amino-5-chlorothiazol-4-yl)-2-(hydroxyimino)acetamido]-3-[2-(2-aminoethylthiomethyl)pyrid-3-ylthio]-3-cephem-4-carboxylic acid], the fraction unbound in data set [1] (rat serum) was 0.15.
Regarding `N=C(N)NCCSCc1ncccc1SC1=C(C(=O)O)N2C(=O)[C@@H](NC(=O)/C(=N\O)c3nc(N)sc3Cl)[C@H]2SC1` [Cmpd 2-S, (7R)-7-[(Z)-2-(2-amino-5-chlorothiazol-4-yl)-2-(hydroxyimino)acetamido]-3-[2-(2-guanidinoethylthiomethyl)pyrid-3-ylthio]-3-cephem-4-carboxylic acid], the values for the fraction unbound in data set [1] (rat serum) and in data set [1] (rhesus monkey) were 0.24 and 0.12, respectively. The minimal inhibitory concentration (MIC) in data set [2] is 0.125 mg/L (≈ 0.194 µM); in data set [3] it was 0.13 mg/L (≈ 0.202 µM).
